According to patent US9371335B2, “Spirothienopyran-piperidine derivatives as ORL-1 receptor antagonists for their use in the treatment of alcohol dependence and abuse” (Eli Lilly and Company, priority 2011, dated 2016):

Key:
[1] = tested on: msP rats; assay: Free-choice ethanol self-administration in msP rats; assay type: in vivo, rat; conditions: 24 hr
Protocol: In a separate study, male msP rats are obtained from a private colony (University of Camerino, Marche, Italy), individually-housed with food, 10% ethanol (v/v in water), and water available ad libitum, and maintained on a 12 hr. light/dark cycle. Ethanol and water are measured using graduated bottles to assess the volume of ethanol consumed (Economidou D, Fedeli A, Fardon R M, Weiss F, Massi M and Ciccocioppo R (2006) Effect of novel nociceptin/orphanin FQ-NOP receptor ligands on ethanol drinking in alcohol-preferring msP rats. Peptides 27:3299-3306.). Food intake is monitored by weighing the food receptacle. Once rats reach a stable baseline of voluntary ethanol consumption of 5-6 g/kg/day (approximately 4-5 months of age), rats are treated orally with test compounds in the dose range of 3 or 30 mg/kg in a formulation consisting of 1:1 distilled water: 1 M H3PO4 (1-5 mL/kg dose volume), one hour prior to onset of the dark cycle, using a within-subjects, crossover design (3-4 day washout between subsequent doses). Ethanol, water, and food are presented to the animals at the onset of the dark cycle, and consumption of food and fluids is measured at 2, 8, and 24 hr intervals.

[2] = tested on: P rats; assay: Free-choice ethanol self-administration in P rats; assay type: in vivo, rat; conditions: for Mean EtOH Consumed in g/kg (Drug-treated) / Reduction vs. Vehicle (EtOH consumed): 12 hr; for ethanol self-administration: free-choice access, P rats and msP rats
Source text: Free-Choice Ethanol Self-Administration in Alcohol-Preferring Rats: P Rats:
In this procedure (modified from Rodd-Henricks Z A, McKinzie D L, Shaikh S R, Murphy J M, McBride W J, Lumeng L and Li T K (2000) Alcohol deprivation effect is prolonged in the alcohol preferring (P) rat after repeated deprivations. Alcohol Clin Exp Res 24:8-16), female P rats are obtained from a private colony (Taconic, Germantown, N.Y.), individually-housed with food, 15% ethanol (v/v, in water), and water available ad libitum, and maintained on a 12 hr. light/dark cycle (lights off at 16:00). The chambers are equipped with a force transduction system (TSE Systems, Bad Homburg, Germany) attached to the ethanol, water, and food receptacles to enable continuous monitoring of food and liquid consumption. Rats voluntarily consume 15% ethanol with a mean daily intake of roughly 5 g/kg for several months prior to drug testing. Rats are treated orally with vehicle or test compounds in the dose range of 3, 10, or 30 mg/kg (3 mL/kg dose volume, dissolved in a vehicle consisting of 20% Captisol® in 25 mM phosphate buffer at pH=2), or naltrexone (10 mg/kg, 1 mL/kg dose volume, dissolved in water) immediately prior to the onset of the dark cycle, using a within-subjects, crossover design (3-4 day washout between subsequent doses). In a separate experiment, rats receive oral administration of vehicle followed by 4 daily oral doses of vehicle or 30 mg/kg test compound immediately prior to the onset of the dark cycle, using a between-subjects design.

[3] = P rats, 30 mg/kg oral once daily, day 2
[4] = P rats, 30 mg/kg oral once daily, day 3
[5] = P rats, 30 mg/kg oral once daily, day 4
[6] = P rats, 30 mg/kg oral once daily, day 5

SMILES	Mean EtOH Consumed in g/kg (Drug-treated) ([1]; 3 mg/kg oral) [g/kg]	Reduction vs. Vehicle (EtOH consumed) ([1]; 3 mg/kg oral) [%]	Mean EtOH Consumed in g/kg (Drug-treated) ([1]; 30 mg/kg oral) [g/kg]	Reduction vs. Vehicle (EtOH consumed) ([1]; 30 mg/kg oral) [%]	Mean EtOH Consumed in g/kg (Drug-treated) ([2]; P rats, 3 mg/kg oral) [g/kg]	Reduction vs. Vehicle (EtOH consumed) ([2]; P rats, 3 mg/kg oral) [%]	Mean EtOH Consumed in g/kg (Drug-treated) ([2]; P rats, 10 mg/kg oral) [g/kg]	Reduction vs. Vehicle (EtOH consumed) ([2]; P rats, 10 mg/kg oral) [%]	Mean EtOH Consumed in g/kg (day 2) [2, 3] [g/kg]	Reduction vs. vehicle (EtOH consumed, day 2) [2, 3] [%]	Mean EtOH Consumed in g/kg (day 3) [2, 4] [g/kg]	Reduction vs. vehicle (EtOH consumed, day 3) [2, 4] [%]	Mean EtOH Consumed in g/kg (day 4) [2, 5] [g/kg]	Reduction vs. vehicle (EtOH consumed, day 4) [2, 5] [%]	Mean EtOH Consumed in g/kg (day 5) [2, 6] [g/kg]	Reduction vs. vehicle (EtOH consumed, day 5) [2, 6] [%]	Mean EtOH Consumed in g/kg (Drug-treated) ([2]; P rats, 30 mg/kg oral) [g/kg]	Reduction vs. Vehicle (EtOH consumed) ([2]; P rats, 30 mg/kg oral) [%]	suppression of ethanol intake on repeated dosing ([2]; P rats, 4 days of once daily dosing, result in words)	ethanol self-administration ([2]; result in words)
Cc1nn(-c2ncccc2CO)cc1CN1CCC2(CC1)OCC(F)(F)c1cc(Cl)sc12 [Compound 1, [2-[4-[(2-chloro-4,4-difluoro-spiro[5H-thieno[2,3-c]pyran-7,4′-piperidine]-1′-yl)methyl]-3-methyl-pyrazol-1-yl]-3-pyridyl]methanol]	6.7	8.2	4.4	39.7	3.54	25.2	3.67	22.4	1.59	63.6	2.02	61.8	2.69	45.0	2.50	54.0	1.50	68.3	maintain suppression of ethanol intake in P rats throughout 4 days of once daily dosing without tachyphylaxis	significantly reduce ethanol self-administration
Cc1nn(-c2ncccc2F)cc1CN1CCC2(CC1)OCC(F)(F)c1cc(Cl)sc12 [Compound 2, 2-Chloro-4,4-difluoro-1′-[[1-(3-fluoro-2-pyridyl)-3-methyl-pyrazol-4-yl]methyl]spiro[5H-thieno[2,3-c]pyran-7,4′-piperidine]]	5.6	20.0	5	28.6	–	–	3.70	28.3	–	–	–	–	–	–	–	–	3.40	34.1	–	significantly reduce ethanol self-administration
